Results on eight compounds are retold here after US5789444A, “Method of reducing glutamate neurotoxicity with anthranilic acid derivatives” (Washington University, priority 1996, dated 1998).

“Also recorded” adds a separate entry of the source.

Assay [1] deals with NMDA-induced neurotoxicity, mouse cortical cultures. The assay is described as follows: NMDA-mediated excitotoxicity in mixed cortical cultures (neuronal injury by LDH release). Type of assay: cell-based. As to the method: (§1) Cell Culture: Mixed cortical cultures containing both neuronal and glial elements were prepared from fetal mice at 15 day gestation as previously described (Hewett et al., 1993). Glia were plated in Primaria (Falcon) 15 mm multiwell vessels in modified Eagle's medium (MEM, Earle's salts), with 2 mM glutamine, 25 mM glucose, 10% fetal bovine serum, 10% horse serum, and 10 ng/ml epidermal growth factor. Dissociated cortical cells were plated (2.75 hemispheres/10 ml/plate) in a similar medium (with only 5% fetal bovine serum and 5% horse serum) on an established bed of glia (15-30 days in vitro). All cultures were kept at 37° C. in a humidified 5% CO2 -containing atmosphere. After 3-7 days in vitro, glial cell division was halted by 2 days of exposure to 10 μM cytosine arabinoside. Cells were subsequently shifted into maintenance medium which was identical to the plating medium, but lacked fetal bovine serum. The medium was changed twice weekly. Experiments were performed on cortical cultures after 14 days in vitro.
Drug Exposure: Cells were exposed to NMDA for 5 min either alone or in the presence of test compound at room temperature in a HEPES controlled salt solution (HCSS), containing (mM): NaCl, 120; KCl, 5.4; MgCl2, 0.8; CaCl2, 1.8; HEPES, 20; glucose, 15, and glycine, 0.01 (pH 7.4). The exposure solution was then washed away and replaced by MEM (Earle's salts) supplemented with glycine (0.01 mM) and the cells returned to the incubator for 20-24 hr.
Since the neurotoxicity of NMDA preparations can vary from lot to lot, the concentration of NMDA used was determined empirically in a separate benchmarking test. Cells were exposed as described above to increasing concentrations of NMDA, and neuronal injury is assessed as described below. A dose/response curve is plotted, and a concentration which induces death in 50-70% of the neuronal population after 24 hours is used as the test concentration for evaluating compounds as neuroprotective drugs.
Assessment of Neuronal Cell Injury: Neuronal cell death was estimated by examination of cultures under phase-contrast microscopy, and quantified by measurement of lactate dehydrogenase (LDH) released by damaged or destroyed cells into the bathing medium one day following experimentation (Koh, J. Y. and Choi, D. W., 1987). The LDH signal corresponding to near-complete neuronal death was determined by assaying the supernatant of sister cultures which were exposed to 500 μM NMDA for 24 hr in MEM supplemented with 10 μM glycine. Background LDH levels (generally <15% of total neuronal) were determined in sister cultures subjected to sham wash and subtracted from the levels in experimental conditions to yield the LDH signal specific to experimental injury.
Mouse cortical cultures were exposed for 5 min to NMDA (100 μM) alone or in the presence of increasing concentrations of meclofenamate sodium, as described under Experimental Procedures, above. Values represent the mean LDH±SEM (n=5-7) scaled to the mean LDH found in control injury (=100).
Mouse cortical cultures were exposed, as described in Example 1, for 5 min to solutions containing increasing concentrations of NMDA or NMDA plus 300 μM meclofenamate. LDH activity was assessed 20-24 hr later. Data are expressed as the percentage of total LDH released (mean ±SEM; n=10). Total LDH was determined by assaying the supernatant of sister cultures which were incubated with 500 μM NMDA for 24 hr. An asterisk indicates difference form untreated controls as determined by repeated measures Analysis of Variance ("ANOVA") followed by Bonferroni's t-test for multiple comparisons (p<0.01).
Cells were exposed to NMDA (100-200 μM) (as described previously) both in the presence and absence of cyclooxygenase/lipooxygenase inhibitors. Data represents the mean LDH±SEM scaled to the mean LDH found in control injury (NMDA alone=100). Data were analyzed via ANOVA followed by Dunnett's t-test for multiple comparisons.
A general note: Release of lactate dehydrogenase indicates damage to the cell membrane.

Assay [2] deals with cyclooxygenase and lipoxygenase metabolites. Nature of the assay: RIA measurements of lipid breakdown products following NMDA exposure. As to conditions: data not shown. Type of assay: cell-based.
Assay [3] has as its system voltage-gated calcium channels. Nature of the assay: KCl-stimulated influx of calcium (fura-2 fluorescence videomicroscopy). Type of assay: cell-based, mouse. Conditions: meclofenamate 300 μM, 60 mM KCl, 5 min; FIG. 5. As for the experimental part:
as §1, with “The medium was changed twice weekly. Experiments were performed on cortical cultures after 14 days in vitro.” left out
Cytosolic Calcium Measurements: Intracellular free calcium was measured using fura-2 fluorescence videomicroscopy. […] Background fluorescence was measured from a cell free region of the coverslip at the end of each experiment and subtracted from each 340 and 380 image. […]
Cells were exposed for 5 minutes, as in Example 1, to 60 mM KCl in the presence and absence of meclofenamate (300 μM). Intracellular free calcium [Ca^2 +]i was measured using fura-2 fluorescence videomicroscopy.

In assay [4] the test system is focal cerebral ischemia, Long Evans male rats. Nature of the assay: Induced focal cerebral ischemia (MCAO) with reperfusion, cortical infarct volume. In kind it is in vivo, rat. As to the method: Surgical MCAO occlusion: Focal cerebral ischemia, confined to the cerebral cortex in the right middle cerebral artery territory (MCA) of Long Evans male rats (250-350 g; Charles Rivers, Wilmington, Del.), was induced by temporary ligation of the MCA and both common carotid arteries (CCAs) as described by Chen et al., 1986. The rectal temperature was monitored and maintained at 37.0°±0.5° C. via an electronic temperature controller (Versa-Therm 2156, Cole-Parmer, Chicago, Ill.) linked to a heating lamp. Physiological parameters including plasma blood glucose, arterial blood pressure, and pulse rate were monitored as described previously and maintained within normal range (Liu et al, 1989). Reperfusion was initiated by releasing arterial occlusion affecting all 3 vessels after 90 min of ischemia. Restoration of blood flow in all three arteries was observed directly under the microscope. Rats were treated i.p. with vehicle (control) or meclofenamate (10 mg/kg, i.p.) 15 min before ischemia.. The cortical infarct volume was morphometrically measured after triphenyl tetrazolium chloride stain 24 hr after MCAO.
31 rats underwent middle cerebral artery occlusion (MCAO) followed by reperfusion. Fourteen rats underwent MCAO alone while 17 rats were given intraperitoneal meclofenamate (10 mg/kg) 15 minutes prior to 90 min MCAO.

Assay [5] has as its system lipoxygenase/cyclooxygenase. As to conditions: conclusion of prior studies; cited from earlier work.
Another assay has as its system lipid catabolism. Conditions: known; cited from earlier work.
Assay [6] relates to NMDA-induced 45Ca2+ influx. The assay is described as follows: 45Ca2+ accumulation during NMDA exposure in cortical cultures. Type of assay: cell-based, mouse. Conditions: NMDA 300 μM, 5 min, increasing concentrations, n=18, FIG. 4. As for the experimental part:
^45 Ca^2 + accumulation: Mouse cortical cultures were washed with HCSS and then exposed to NMDA (300 μM) alone or in the presence of increasing concentrations of meclofenamate in HCSS containing a trace amount of ^45 Ca^2+ (0.5 μCi/well; NEN, Boston, Mass.). After 5 min the exposure solution was washed out with four rinses of HCSS (750 μl each) and the cells were lysed by addition of 0.2% sodium dodecyl sulfate (SDS) at 37° C. An aliquot of cell lysate was estimated by β-counting.
Mouse cortical cultures were exposed, as in Example 1, for 5 min to NMDA (300 μM) alone or NMDA plus increasing concentrations of meclofenamate in the presence of extracellular ^45 Ca^2+. Values are expressed as mean ±SEM (n=18).

The subject of another assay is NMDA receptor. Nature of the assay: Whole-cell recording of NMDA current in cortical neurons. In kind it is cell-based, mouse. As to the method: Electrophysiological Recording: NMDA current was recorded at room temperature (25° C.) from DIV 12-20 cortical neurons plated on 35 mm dishes using whole-cell recording (EPC-7, List-Electronic, Germany) under voltage clamp. The data acquisition program, PULSE (HEKA Electronic, Germany), was used to control the voltage clamp, to monitor and to collect current and voltage data on a Macintosh computer (Quatra 950, Apple Computer Corp., USA). The extracellular solution contained (mM): NaCl, 145; KCl, 3; MnCl2, 2; CaCl2, 2; glycine, 0.01; HEPES, 10; TTX, 0.005 and glucose, 5. The recording electrode's internal solution contained (mM) CsCl, 150, ATP-Na, 2, BAPTA, 0.5 and HEPES, 10. All solutions were adjusted to pH 7.3 by Tris buffer. NMDA (100 μM) in the extracellular solution was delivered to the cell by a multi-channel DAD drug delivery system (Adams and List Inc., New York.) To eliminate dilution of drug, meclofenamate was added to the bath medium and NMDA was delivered in an extracellular solution containing the same concentration of drug.
Ten min prior to NMDA (100 μM) application, mouse cortical cells were treated with 300 μM meclofenamate. NMDA current was recorded using whole cell recording techniques. To eliminate dilution of drug, NMDA was delivered to the cell in a solution containing the same concentration of drug as that in the bath.

The mark [7] stands for this setting: Mus musculus, compound 300 μM, NMDA 100-200 μM, mean LDH±SEM, asterisk = significantly different from control, read-out: LDH, % of control (NMDA alone=100).

With `CCCCCCCCC#CCC#CCC#CCCCC(=O)O` [ETI], the “LDH, % of control (NMDA alone=100)” value in assay [1] (compound 300 μM, NMDA 100-200 μM, mean LDH±SEM, asterisk = significantly different from control) was 107 ± 13.0%.

Turning to `CCCCCC#CCC#CCC#CCC#CCCCC(=O)O` [ETYA], the activity at 300 µM in assay [1] (setting [7]) was determined as 85.1 ± 6.2%.

Take `O=c1ccc2cc(O)c(O)cc2o1` [Esculetin]: in assay [1] (setting [7]), the activity at 300 µM came to 117 ± 17.1%.

On to `Cc1ccc(Cl)c(Nc2ccccc2C(=O)O)c1Cl` [Meclofenamate], for which, in assay [2], the “formation of cyclooxygenase and lipoxygenase metabolites” value was “able to block formation of both cyclooxygenase and lipoxygenase metabolites”. Moreover, in assay [3], the “elevation of intracellular calcium produced by KCl stimulation” value is reported as “no effect on the elevation of intracellular calcium produced by KCl stimulation”. Moreover, the activity at 300 µM in assay [1] (setting [7]) was 10.8 ± 5.1%. Further, the “neuronal injury (LDH release)” value in assay [1] (given at the same time as NMDA (100 μM, 5 min), increasing concentrations, FIG. 1) is on record as “dose-dependently decreased neuronal injury”. The “protective effect against NMDA receptor-mediated neurotoxicity” value in assay [1] (in vitro, summary in words, listed as meclofenamate sodium) is given as “powerful protective effect; also recorded: neuroprotective”. The “neuroprotection over a full concentration-toxicity curve for NMDA” value in assay [1] (meclofenamate 300 μM, FIG. 2) is “Complete neuroprotection”. For the same compound, the cortical infarct volume in assay [4] (10 mg/kg i.p. 15 min prior to 90 min MCAO, 24 hr, control 144.8±8.8, p<0.002) is on record as 99.2±9.2 mm^3. Also, in assay [4] (in vivo, summary in words), the “neuroprotection in animal model of cerebral ischemia” value is given as “neuroprotective”. The lipoxygenase/cyclooxygenase inhibition entry in assay [5] is “dual lipoxygenase/cyclooxygenase inhibitor”. In the assay with lipid catabolism, the “inhibition of lipid catabolism” value is “inhibitor of lipid catabolism”. Besides, the “NMDA-induced 45Ca2+ influx / uptake” value in assay [6] is “did not significantly affect uptake at any concentration tested”; in assay [6] (listed as meclofenamate) it was “not significantly altered”. Further, in the assay on NMDA receptor (300 μM, 10 min prior to NMDA (100 μM), whole-cell, FIG. 3), the NMDA current result is “failed to alter the current elicited by application of NMDA”. The NMDA receptor antagonism entry in the assay on NMDA receptor (electrophysiological and radiotracer flux measurements) is “not an NMDA receptor antagonist”.

Regarding `CC(Cc1ccc(O)c(O)c1)C(C)Cc1ccc(O)c(O)c1` (stereo not drawn) [NDGA], in assay [1] (Mus musculus, compound 30 μM, NMDA 100-200 μM, mean LDH±SEM, read-out: LDH, % of control (NMDA alone=100)), the activity at 30 µM turned out to be 101 ± 11%.

For the compound `O=C1CCN(c2ccccc2)N1` [Phenidone], the activity at 300 µM in assay [1] (setting [7]) turned out to be 58.1 ± 6.7%.

On to `CC(C)Cc1ccc(C(C)C(=O)O)cc1` (stereo not drawn) [ibuprofen], for which, in assay [1] (Mus musculus, compound 100 μM, NMDA 100-200 μM, mean LDH±SEM, asterisk = significantly different from control, read-out: LDH, % of control (NMDA alone=100)), the activity at 100 µM came out at 65.4 ± 3.5%.

Turning to `COc1ccc2cc([C@H](C)C(=O)O)ccc2c1` [naproxen], the activity at 300 µM in assay [1] (setting [7]) is 82.5 ± 7.1%.
